Results as given in patent publication US11547681B2, “N-acylethanolamide derivatives and uses thereof” (ELIEM THERAPEUTICS, INC., priority 2016, dated 2023).

Key:
in vitro [1] = settings: male, Beagle, dog
Protocol: (§1) Reaction mixture, minus cofactors, was prepared as described below. Test article was added into the reaction mixture at a final concentration of 1 μM. […] An aliquot of the reaction mixture (without cofactor cocktail) was equilibrated in a shaking water bath at 37° C. for 3 minutes. The reaction was initiated by the addition of cofactor cocktail, and the mixture was incubated in a shaking water bath at 37° C. Aliquots (100 μL) were withdrawn at 0, 10, 20, 30, and 60 minutes. Test article samples were immediately combined with 300 μL of ice-cold acetonitrile containing 1% formic acid. Control samples were immediately combined with 400 μL of ice-cold 50/50 acetonitrile (ACN)/dH2O containing 0.1% formic acid and internal standard to terminate the reaction. Samples were then mixed and centrifuged to precipitate proteins. Calibration standards were prepared in matched matrix. Samples and standards were assayed by LC-MS/MS using electrospray ionization for both the dosed prodrug and the expected drug (PEA). Analytical conditions are outlined in Appendix 8-1. Test article concentration at each time point was compared to test article concentration at time 0 to determine the percent remaining at each time point. Halflives were calculated using GraphPad software, fitting to a single-phase exponential decay equation.
as §1, with “for 5” for “for 3”, “minutes. Reaction” for “minutes. The reaction”, “and” for “and the”, “both” for “both the”, “Appendix 10-1.” for “Appendix 8-1.”
(§2) Reaction mixture, minus cofactors, was prepared as described below. Test article was added into the reaction mixture at a final concentration of 1 μM. […] An aliquot of the reaction mixture (without cofactor cocktail) was equilibrated in a shaking water bath at 37° C. for 3 minutes. Reaction was initiated by the addition of cofactor cocktail, and the mixture was incubated in a shaking water bath at 37° C. Aliquots (100 μL) were withdrawn at 0, 10, 20, 30, and 60 minutes. Test article samples were immediately combined with 300 μL of ice-cold acetonitrile containing 1% formic acid. Control samples were immediately combined with 400 μL of ice-cold 50/50 acetonitrile (ACN)/dH2O containing 0.1% formic acid and internal standard to terminate the reaction. Samples were then mixed and centrifuged to precipitate proteins. Calibration standards were prepared in matched matrix. Samples and standards were assayed by LC-MS/MS using electrospray ionization for both dosed prodrug and expected drug (PEA). Analytical conditions are outlined in Appendix 13-1. Test article concentration at each time point was compared to test article concentration at time 0 to determine the percent remaining at each time point. Halflives were calculated using GraphPad software, fitting to a single-phase exponential decay equation.

in vitro [2] = settings: male, Sprague-Dawley, rat
Protocol: (§3) The reaction mixture, minus cofactors, was prepared as described below. The test article was added into the reaction mixture at a final concentration of 1 μM. […] An aliquot of the reaction mixture (without cofactor cocktail) was equilibrated in a shaking water bath at 37° C. for 3 minutes. The reaction was initiated by the addition of cofactor cocktail, and the mixture was incubated in a shaking water bath at 37° C. Aliquots (100 μL) were withdrawn at 0, 10, 20, 30, and 60 minutes. All samples were immediately combined with 400 uL of icecold 50/50 acetonitrile/H2O containing 0.1% formic acid and internal standard to terminate the reaction. The samples were then mixed and centrifuged to precipitate proteins. Calibration standards were prepared in matched matrix. All samples and standards were assayed by LC-MS/MS using electrospray ionization for both the dosed prodrug I-9 and the expected drug (PEA). Analytical conditions are outlined in Appendix 4-1. The test article concentration at each time point was compared to the test article concentration at time 0 to determine the percent remaining at each time point. Half-lives were calculated using GraphPad software, fitting to single-phase exponential decay equation.
as §1
as §2, with “for 5” for “for 3”, “and” for “and the”, “Appendix 10-1.” for “Appendix 13-1.”
(§4) Reaction mixture, minus cofactors, was prepared as described below.

in vitro [3] = settings: both, human
Protocol: as §3, §1
as §2, with “for 5” for “for 3”, “and” for “and the”, “Appendix 10-1.” for “Appendix 13-1.”
as §4

CC/C=C\C/C=C\C/C=C\C/C=C\C/C=C\CCCC(=O)OCCNC(=O)CCCCCCCCCCCCCCC [Compound I-5]
Concentration (μM) of analyte PEA, 0 min (in vitro [1]; 0 min, 1 μM): 0.13 µM | Concentration (μM) of analyte PEA, 10 min (in vitro [1]; 10 min, 1 μM): 0.26 µM | Concentration (μM) of analyte PEA, 20 min (in vitro [1]; 20 min, 1 μM): 0.25 µM | Concentration (μM) of analyte PEA, 30 min (in vitro [1]; 30 min, 1 μM): 0.25 µM | Concentration (μM) of analyte PEA, 60 min (in vitro [1]; 60 min, 1 μM): 0.28 µM | % Remaining of Initial (n = 1), 0 min (in vitro [1]; s9, 0 h, 1 μM): 100% | % Remaining of Initial (n = 1), 10 min (in vitro [1]; s9, 10 min, 1 μM): 50% | % Remaining of Initial (n = 1), 20 min (in vitro [1]; s9, 20 min, 1 μM): 48% | % Remaining of Initial (n = 1), 30 min (in vitro [1]; s9, 0.5 h, 1 μM): 36% | % Remaining of Initial (n = 1), 60 min (in vitro [1]; s9, 1 h, 1 μM): 36% | microsomal CLint at 1 μM (in vitro [1]; s9, CLint (mL/min/mg protein)): 26.3 µL/min/mg | half-life at 1 μM (in vitro [1]; s9, Half-life (min)): 26 min | Concentration (μM) of analyte PEA, 0 min (in vitro [2]; 0 min, 1 μM): 0.029 µM | Concentration (μM) of analyte PEA, 10 min (in vitro [2]; 10 min, 1 μM): 0.062 µM | Concentration (μM) of analyte PEA, 20 min (in vitro [2]; 20 min, 1 μM): 0.099 µM | Concentration (μM) of analyte PEA, 30 min (in vitro [2]; 30 min, 1 μM): 0.11 µM | Concentration (μM) of analyte PEA, 60 min (in vitro [2]; 60 min, 1 μM): 0.18 µM | % Remaining of Initial (n = 1), 0 min (in vitro [2]; s9, 0 h, 1 μM): 100% | % Remaining of Initial (n = 1), 10 min (in vitro [2]; s9, 10 min, 1 μM): 57% | % Remaining of Initial (n = 1), 20 min (in vitro [2]; s9, 20 min, 1 μM): 48% | % Remaining of Initial (n = 1), 30 min (in vitro [2]; s9, 0.5 h, 1 μM): 46% | % Remaining of Initial (n = 1), 60 min (in vitro [2]; s9, 1 h, 1 μM): 44% | microsomal CLint at 1 μM (in vitro [2]; s9, CLint (mL/min/mg protein)): 18.2 µL/min/mg | half-life at 1 μM (in vitro [2]; s9, Half-life (min)): 38 min | Concentration (μM) of analyte PEA, 0 min (in vitro [3]; 0 min, 1 μM): 0 µM | Concentration (μM) of analyte PEA, 10 min (in vitro [3]; 10 min, 1 μM): 0.050 µM | Concentration (μM) of analyte PEA, 20 min (in vitro [3]; 20 min, 1 μM): 0.063 µM | Concentration (μM) of analyte PEA, 30 min (in vitro [3]; 30 min, 1 μM): 0.074 µM | Concentration (μM) of analyte PEA, 60 min (in vitro [3]; 60 min, 1 μM): 0.10 µM | % Remaining of Initial (n = 1), 0 min (in vitro [3]; s9, 0 h, 1 μM): 100% | % Remaining of Initial (n = 1), 10 min (in vitro [3]; s9, 10 min, 1 μM): 82% | % Remaining of Initial (n = 1), 20 min (in vitro [3]; s9, 20 min, 1 μM): 49% | % Remaining of Initial (n = 1), 30 min (in vitro [3]; s9, 0.5 h, 1 μM): 38% | % Remaining of Initial (n = 1), 60 min (in vitro [3]; s9, 1 h, 1 μM): 45% | microsomal CLint at 1 μM (in vitro [3]; s9, CLint (mL/min/mg protein)): 21.6 µL/min/mg | half-life at 1 μM (in vitro [3]; s9, Half-life (min)): 32 min
